Assay results published in ChEMBL document CHEMBL1146151, “Polyoxometalates--a new class of potent ecto-nucleoside triphosphate diphosphohydrolase (NTPDase) inhibitors” (Bioorg Med Chem Lett, 2006).

Biological target: T1, Ectonucleoside triphosphate diphosphohydrolase 2 (Rattus norvegicus) (UniProt O35795)
T1 sequence (whole entry): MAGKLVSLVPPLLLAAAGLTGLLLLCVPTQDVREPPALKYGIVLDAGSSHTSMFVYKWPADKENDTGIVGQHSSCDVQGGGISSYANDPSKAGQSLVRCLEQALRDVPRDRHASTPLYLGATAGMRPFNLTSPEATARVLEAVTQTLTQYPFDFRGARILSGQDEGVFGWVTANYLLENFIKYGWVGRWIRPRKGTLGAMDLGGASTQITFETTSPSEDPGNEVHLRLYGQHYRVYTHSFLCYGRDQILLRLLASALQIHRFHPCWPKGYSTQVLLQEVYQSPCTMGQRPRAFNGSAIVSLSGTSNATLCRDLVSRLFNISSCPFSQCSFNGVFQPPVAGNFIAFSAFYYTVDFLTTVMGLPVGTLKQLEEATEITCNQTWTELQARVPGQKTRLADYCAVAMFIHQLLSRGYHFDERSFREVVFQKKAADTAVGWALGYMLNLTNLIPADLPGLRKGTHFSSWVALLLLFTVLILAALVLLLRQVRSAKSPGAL
Details: CHO, 1 mM
Description: Inhibition of rat recombinant NTPDase2 expressed in CHO cells at 1 mM

`CCN(CC)c1ncnc2c1ncn2[C@@H]1O[C@H](COP(=O)(O)OP(=O)(O)C(Br)(Br)P(=O)(O)O)[C@@H](O)[C@H]1O` showed an inhibition of 50%.
